Read-outs that look alike come from different tables or passages of the source.
How the values were obtained:
[1] = Intravenous pharmacokinetic study of Daporinad in mice (plasma, LC-qTOF-MS, NCA); assay type: in vivo, mouse; conditions: for AUC(0-t) / Cmax / clearance / half-life / Vd: male, ICR; for AUC(0-t) / Cmax / clearance / half-life: n = 3; for Vd: n = 3, read-out: Vss
Procedure: The developed LC-qTOF-MS method was successfully applied to obtain the PK parameters of Daporinad in mouse plasma following IV administration at the doses of 5, 10 and 30 mg/kg. The concentrations of most PK samples were within the qualified calibration curve except some PK samples at early time point samples. Therefore, early time point PK samples were diluted appropriately with blank mouse plasma to ensure that every sample concentration was within the calibration curve range. The PK parameters were calculated with the non-compartmental analysis (NCA) using WinNonlin (version 8.0.0) and the results are summarized in Table 4.
An aliquot of 4 µL of STD or QC working solutions were spiked into 20 µL of blank mouse plasma, and 4 µL of make-up DMSO was spiked into 20 µL of the mouse PK sample to make it the same matrix condition as the STD and QC sample. Then, 100 µL of ISTD solution was added to STD, QC and the study sample. Then, the samples were vortexed for about 1 min and centrifuged at 10,000× g rpm for 5 min. After centrifugation, 75 µL of supernatant was taken and mixed with 75 µL of DW. After that, the aliquot was transferred to an LC vial for the LC-qTOF-MS analysis.
Male ICR mice (30 ± 3 g) were purchased from the Samtako biokorea co. (Pocheon, Gyeonggi, Korea) and housed in groups of 6~8 per cage and given standard rodent chow. The animals were fasted overnight with free access to water for at least 12 h before administration. Mice were distributed into three different dosing groups (n = 3 for each dosing group; 5, 10 and 30 mg/kg). The blood sampling time points were 2, 10, 30, 60, 120, 240 and 420 min after administration. The sampling blood samples were centrifuged at 12,000× g rpm for 5 min and the plasma was transferred to another tube and then stored at −20 °C until further analysis. All experiment performed on the mouse were approved by abiding the animal care protocol (no. CNU-01104) from Chungnam National University. The procedures were abided by the guidelines established by the Association for Assessment and Accreditation of Laboratory Animal Care International (AAALAC International).
Data acquisition and LC-qTOF-MS operation was conducted using Analyst® TF Version 1.6 (Sciex, Foster City, CA, USA). MultiQuant® Version 2.1.1 (Sciex, Foster City, CA, USA) was used for the peak integration for Daporinad quantification. PeakView® Version 2.2 (Sciex, Foster City, CA, USA) and MetabolitePilot™ Version 2.0.2 (Sciex, Foster City, CA, USA) were used for the structural elucidation of Daporinad metabolites. The descriptive statistics for the qualification studies were calculated with Excel 2015 (Microsoft). Pharmacokinetic parameters were calculated in a non-compartmental analysis using WinNonlin® version 8.0.0 (Certara, Princeton, NJ, USA).

[2] = Preliminary stability tests for Daporinad in mouse plasma; assay type: in vitro ADME; conditions: for Freeze–thaw stability, mean accuracy: 3 cycles; for Freeze–thaw stability, mean accuracy / Short-term stability, mean accuracy: n = 3; for Short-term stability, mean accuracy: 4 h
Procedure: Daporinad was stable in mouse plasma for […] three cycles of freeze–thawing and also stable during at least 2 weeks at −80 °C storage condition.
Three levels of QC were used for the short-term, freeze–thaw and long-term stability assessments. The short-term stability assessment was carried out at RT for 4 h, and the long-term stability samples were kept frozen at −80 °C for 2 weeks. The freeze–thaw stability was evaluated over three cycles of freezing (−80 °C) and thawing (RT). The stability test results were evaluated by confirming that the mean accuracy (%) of the nominal value which should be within ±25% acceptance criteria.

[3] = as above; assay type: in vitro ADME; conditions: 14 days, −20 °C, n = 3
[4] = mouse plasma, dose range 10 to 30 mg/kg

Freeze–thaw stability, mean accuracy ([2]; mouse plasma, −80 °C, High QC (1820 ng/mL)): 116%
Freeze–thaw stability, mean accuracy ([2]; mouse plasma, −80 °C, Low QC (15.0 ng/mL)): 105%
Freeze–thaw stability, mean accuracy ([2]; mouse plasma, −80 °C, Medium QC (165 ng/mL)): 117%
Short-term stability, mean accuracy ([2]; mouse plasma, RT, High QC (1820 ng/mL)): 104%
Short-term stability, mean accuracy ([2]; mouse plasma, RT, Low QC (15.0 ng/mL)): 103%
Short-term stability, mean accuracy ([2]; mouse plasma, RT, Medium QC (165 ng/mL)): 102%
Time stable in mouse plasma at room temperature ([2]; mouse plasma, RT): at least 4 h
Time stable in mouse plasma at storage condition ([2]; mouse plasma, −80 °C storage): at least 2 weeks
Freeze–thaw stability in mouse plasma ([2]; −80 °C, three cycles of freeze–thawing): stable
Long-term stability, mean accuracy ([3]; High QC (1820 ng/mL)): 91.4%
Long-term stability, mean accuracy ([3]; Low QC (15.0 ng/mL)): 111%
Long-term stability, mean accuracy ([3]; Medium QC (165 ng/mL)): 84.5%
Compound: O=C(/C=C/c1cccnc1)NCCCCC1CCN(C(=O)c2ccccc2)CC1 [Daporinad]
AUC(0-t) ([1]; mouse plasma, 5 mg/kg): 2860 ng·h/mL
Cmax ([1]; mouse plasma, 5 mg/kg): 5480 ± 427 ng/mL
clearance ([1]; mouse plasma, 5 mg/kg): 29.3 ± 3.7 mL/min/kg
half-life ([1]; mouse plasma, 5 mg/kg): 52.9 ± 7.3 min
Vd ([1]; mouse plasma, 5 mg/kg): 0.897 ± 0.199 L/kg
AUC(0-t) ([1]; mouse plasma, 10 mg/kg): 5950 ng·h/mL
Cmax ([1]; mouse plasma, 10 mg/kg): 14900 ng/mL
clearance ([1]; mouse plasma, 10 mg/kg): 28.1 ± 2.78 mL/min/kg
half-life ([1]; mouse plasma, 10 mg/kg): 50.5 ± 4.88 min
Vd ([1]; mouse plasma, 10 mg/kg): 0.647 ± 0.0915 L/kg
AUC(0-t) ([1]; mouse plasma, 30 mg/kg): 29400 ng·h/mL
Cmax ([1]; mouse plasma, 30 mg/kg): 48100 ng/mL
clearance ([1]; mouse plasma, 30 mg/kg): 17.9 ± 5.11 mL/min/kg
half-life ([1]; mouse plasma, 30 mg/kg): 40.8 ± 0.95 min
Vd ([1]; mouse plasma, 30 mg/kg): 0.536 ± 0.11 L/kg
Dose proportionality of Cmax and AUC ([1]; mouse plasma, dose range 5 to 10 mg/kg): dose proportional
Dose proportionality of AUC [1, 4]: supra-proportional
Dose proportionality of Cmax [1, 4]: dose-proportional
Clearance classification ([1]; mouse, 5 to 30 mg/kg): low to moderate clearance

From PMC8954816, “Quantitative Analysis of Daporinad (FK866) and Its In Vitro and In Vivo Metabolite Identification Using Liquid Chromatography-Quadrupole-Time-of-Flight Mass Spectrometry” (Molecules, 2022)
